Measured values as given in ChEMBL document CHEMBL4725222, “Advances in the Development of Phosphodiesterase-4 Inhibitors” (J Med Chem, 2020).
One block for each molecule: values may come before it.

Assays:
[1] = target: T1, 3',5'-cyclic-AMP phosphodiesterase 4B (Homo sapiens, UniProt Q07343); assay: Inhibition of human brain PDE4B catalytic domain using cAMP as substrate incubated for 1 hr by luminescence method
[2] = target: T2, 3',5'-cyclic-AMP phosphodiesterase 4D (Homo sapiens, UniProt Q08499); assay: Inhibition of PDE4D3 (unknown origin)
Phosphodiesterase 4 [3] = target: T3, Phosphodiesterase 4 (Homo sapiens, UniProt P27815+Q08499+Q07343+Q08493); assay: Inhibition of human U937 cell derived PDE4 preincubated for 15 mins followed by […] and cAMP addition and measured after 20 mins by liquid scintillation counter; format: protein assay
[4] = target: cGMP-inhibited 3',5'-cyclic phosphodiesterase 3A (Homo sapiens, UniProt Q14432); assay: Inhibition of recombinant human PDE3A catalytic domain expressed in baculovirus infected sf9 cells using 3H-cAMP as substrate incubated for 20 mins by scintillation counting method
[5] = target: T1, 3',5'-cyclic-AMP phosphodiesterase 4B; assay: Inhibition of recombinant human PDE4B catalytic domain expressed in baculovirus infected sf9 cells using 3H-cAMP as substrate incubated for 20 mins by scintillation counting method
Phosphodiesterase 4 [6] = target: T3, Phosphodiesterase 4; assay: Inhibition of human U-937 cell derived PDE4 using [3H]-cAMP or [3H]-cGMP as substrate incubated for 60 mins by scintillation proximity assay; format: protein assay
Phosphodiesterase 4 [7] = target: T3, Phosphodiesterase 4; assay: Inhibition of PDE4 (unknown origin); format: protein assay
[8] = target: T1, 3',5'-cyclic-AMP phosphodiesterase 4B; assay: Inhibition of recombinant human PDE4B2 using cAMP as substrate preincubated for 5 mins followed by substrate addition and measured after 60 mins by luminescence method
[9] = Inhibition of PDE4B2B (152 to 528 residues) (unknown origin) by liquid scintillation counting method; parameters: species or system Homo sapiens
[10] = target: T1, 3',5'-cyclic-AMP phosphodiesterase 4B; assay: Inhibition of N-terminal GST tagged full length human PDE4B2 expressed in baculovirus infected Sf9 cell expression system using cAMP as substrate incubated for 60 mins by time-resolved fluorescence competitive immunoassay
[11] = target: 3',5'-cyclic-AMP phosphodiesterase 4C (Homo sapiens, UniProt Q08493); assay: Inhibition of N-terminal GST tagged full length human PDE4C1 expressed in baculovirus infected Sf9 cell expression system using cAMP as substrate incubated for 60 mins by time-resolved fluorescence competitive immunoassay
[12] = target: T1, 3',5'-cyclic-AMP phosphodiesterase 4B; assay: Inhibition of recombinant human PDE4B2 using cAMP as substrate preincubated for 15 mins followed by substrate addition and measured after 60 mins by Alphascreen assay
[13] = Inhibition of recombinant human PDE4B2B (1 to 564 residues) expressed in Saccharomyces cerevisiae using cAMP as substrate preincubated for 30 mins followed by cAMP addition and measured after 60 mins by luminescence method
[14] = target: T1, 3',5'-cyclic-AMP phosphodiesterase 4B; assay: Inhibition of full length human PDE4B2 expressed in baculovirus infected Sf9 cell expression system preincubated for 10 mins followed by cAMP addition and measured after 30 mins by fluorescence method
[15] = target: T2, 3',5'-cyclic-AMP phosphodiesterase 4D; assay: Inhibition of full length human PDE4D2 preincubated for 10 mins followed by cAMP addition and measured after 30 mins by fluorescence method
Phosphodiesterase 4 [16] = target: T3, Phosphodiesterase 4; assay: Inhibition of PDE4 (unknown origin) expressed in Saccharomyces cerevisiae using [3H] cAMP as substrate incubated for 1 hr by scintillation proximity assay
[17] = Induction of FEV1 in COPD patient at 18 ug/kg administered as single dose; format: functional, Homo sapiens; settings: dose 18 µg/kg
Phosphodiesterase 4 [18] = target: T3, Phosphodiesterase 4; assay: Inhibition of PDE4 in human U937 cell lysate using cAMP as substrate by LANCE assay; format: subcellular; settings: u-937
[19] = target: Muscarinic acetylcholine receptor M3 (Homo sapiens, UniProt P20309); assay: Displacement of [3H]N -methylscopolamine from human muscarinic M3 receptor expressed in CHO-K1 cells incubated for 90 mins by scintillation counting method; format: cell-based
[20] = target: T1, 3',5'-cyclic-AMP phosphodiesterase 4B; assay: Inhibition of recombinant N-terminal GST-tagged full length human PDE4B1 expressed in baculovirus infected Sf9 cells […] as substrate by HPLC-MS method
[21] = target: T1, 3',5'-cyclic-AMP phosphodiesterase 4B; assay: Inhibition of human PDE4B2 expressed in HEK293 cells using cAMP as substrate incubated for 45 to 60 mins by ELISA
[22] = target: High affinity 3',5'-cyclic-AMP phosphodiesterase 7A (Homo sapiens, UniProt Q13946); assay: Inhibition of human PDE7A expressed in HEK293 cells using cAMP as substrate incubated for 60 mins by ELISA
[23] = target: T2, 3',5'-cyclic-AMP phosphodiesterase 4D; assay: Inhibition of PDE4D (unknown origin)

T2 sequence (Q08499 whole entry): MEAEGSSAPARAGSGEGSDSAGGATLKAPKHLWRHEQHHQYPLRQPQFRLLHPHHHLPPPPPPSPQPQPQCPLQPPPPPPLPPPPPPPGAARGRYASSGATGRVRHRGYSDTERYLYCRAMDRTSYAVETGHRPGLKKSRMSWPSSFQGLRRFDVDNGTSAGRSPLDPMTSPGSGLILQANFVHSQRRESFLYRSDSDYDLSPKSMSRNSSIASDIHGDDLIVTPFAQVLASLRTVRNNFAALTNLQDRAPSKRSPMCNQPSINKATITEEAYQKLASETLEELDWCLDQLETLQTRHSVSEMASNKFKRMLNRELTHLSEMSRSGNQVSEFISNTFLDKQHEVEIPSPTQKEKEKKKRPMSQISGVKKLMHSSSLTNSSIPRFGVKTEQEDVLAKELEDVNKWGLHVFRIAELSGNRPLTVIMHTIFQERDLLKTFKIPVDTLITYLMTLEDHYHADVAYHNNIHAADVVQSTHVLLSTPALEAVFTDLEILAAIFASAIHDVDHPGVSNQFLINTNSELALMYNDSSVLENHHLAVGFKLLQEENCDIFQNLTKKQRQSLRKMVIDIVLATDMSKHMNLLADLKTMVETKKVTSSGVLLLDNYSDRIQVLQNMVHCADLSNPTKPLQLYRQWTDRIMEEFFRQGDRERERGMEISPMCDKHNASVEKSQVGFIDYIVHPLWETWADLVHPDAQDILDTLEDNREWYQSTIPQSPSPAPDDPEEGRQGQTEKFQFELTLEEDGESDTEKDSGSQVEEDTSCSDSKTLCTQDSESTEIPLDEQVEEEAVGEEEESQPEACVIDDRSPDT
T1 sequence (Q07343 whole entry, the tested form may be a part): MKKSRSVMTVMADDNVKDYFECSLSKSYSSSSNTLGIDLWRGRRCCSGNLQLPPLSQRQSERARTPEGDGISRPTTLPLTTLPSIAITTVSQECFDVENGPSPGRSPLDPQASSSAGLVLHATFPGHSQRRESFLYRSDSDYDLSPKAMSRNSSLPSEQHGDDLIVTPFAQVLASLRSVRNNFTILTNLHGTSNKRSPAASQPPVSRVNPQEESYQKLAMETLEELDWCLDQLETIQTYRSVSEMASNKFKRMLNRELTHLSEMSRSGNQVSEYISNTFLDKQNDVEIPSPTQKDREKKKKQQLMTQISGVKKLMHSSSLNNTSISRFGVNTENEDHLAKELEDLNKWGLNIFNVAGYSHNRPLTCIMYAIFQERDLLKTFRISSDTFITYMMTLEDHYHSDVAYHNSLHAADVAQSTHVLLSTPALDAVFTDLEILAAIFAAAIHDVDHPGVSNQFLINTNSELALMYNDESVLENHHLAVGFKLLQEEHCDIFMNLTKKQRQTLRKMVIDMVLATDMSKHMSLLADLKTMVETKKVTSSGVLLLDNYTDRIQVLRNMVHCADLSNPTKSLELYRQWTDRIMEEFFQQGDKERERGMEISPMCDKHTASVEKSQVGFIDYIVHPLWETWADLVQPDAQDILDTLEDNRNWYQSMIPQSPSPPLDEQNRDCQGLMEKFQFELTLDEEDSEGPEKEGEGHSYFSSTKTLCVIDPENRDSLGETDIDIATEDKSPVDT
3',5'-cyclic-AMP phosphodiesterase 4C, sequence (Q08493 whole entry): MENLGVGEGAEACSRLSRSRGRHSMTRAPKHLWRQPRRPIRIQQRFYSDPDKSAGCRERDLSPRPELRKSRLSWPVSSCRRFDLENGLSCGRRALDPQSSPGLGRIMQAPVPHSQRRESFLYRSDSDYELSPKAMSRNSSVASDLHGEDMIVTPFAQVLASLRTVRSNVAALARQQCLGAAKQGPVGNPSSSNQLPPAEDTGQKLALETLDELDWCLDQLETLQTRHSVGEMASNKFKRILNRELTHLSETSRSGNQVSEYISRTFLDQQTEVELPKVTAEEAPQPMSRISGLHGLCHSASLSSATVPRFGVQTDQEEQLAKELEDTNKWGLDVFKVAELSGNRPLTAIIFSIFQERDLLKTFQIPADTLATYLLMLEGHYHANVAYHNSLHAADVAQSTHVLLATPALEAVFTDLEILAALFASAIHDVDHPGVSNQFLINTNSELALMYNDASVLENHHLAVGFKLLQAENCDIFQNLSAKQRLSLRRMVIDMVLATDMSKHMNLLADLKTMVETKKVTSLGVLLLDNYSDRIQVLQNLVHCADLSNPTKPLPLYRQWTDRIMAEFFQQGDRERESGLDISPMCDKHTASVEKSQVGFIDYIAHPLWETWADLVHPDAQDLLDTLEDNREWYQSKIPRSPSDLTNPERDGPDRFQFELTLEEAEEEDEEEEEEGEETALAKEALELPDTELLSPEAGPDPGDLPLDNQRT
cGMP-inhibited 3',5'-cyclic phosphodiesterase 3A, sequence (Q14432 whole entry, the tested form may be a part): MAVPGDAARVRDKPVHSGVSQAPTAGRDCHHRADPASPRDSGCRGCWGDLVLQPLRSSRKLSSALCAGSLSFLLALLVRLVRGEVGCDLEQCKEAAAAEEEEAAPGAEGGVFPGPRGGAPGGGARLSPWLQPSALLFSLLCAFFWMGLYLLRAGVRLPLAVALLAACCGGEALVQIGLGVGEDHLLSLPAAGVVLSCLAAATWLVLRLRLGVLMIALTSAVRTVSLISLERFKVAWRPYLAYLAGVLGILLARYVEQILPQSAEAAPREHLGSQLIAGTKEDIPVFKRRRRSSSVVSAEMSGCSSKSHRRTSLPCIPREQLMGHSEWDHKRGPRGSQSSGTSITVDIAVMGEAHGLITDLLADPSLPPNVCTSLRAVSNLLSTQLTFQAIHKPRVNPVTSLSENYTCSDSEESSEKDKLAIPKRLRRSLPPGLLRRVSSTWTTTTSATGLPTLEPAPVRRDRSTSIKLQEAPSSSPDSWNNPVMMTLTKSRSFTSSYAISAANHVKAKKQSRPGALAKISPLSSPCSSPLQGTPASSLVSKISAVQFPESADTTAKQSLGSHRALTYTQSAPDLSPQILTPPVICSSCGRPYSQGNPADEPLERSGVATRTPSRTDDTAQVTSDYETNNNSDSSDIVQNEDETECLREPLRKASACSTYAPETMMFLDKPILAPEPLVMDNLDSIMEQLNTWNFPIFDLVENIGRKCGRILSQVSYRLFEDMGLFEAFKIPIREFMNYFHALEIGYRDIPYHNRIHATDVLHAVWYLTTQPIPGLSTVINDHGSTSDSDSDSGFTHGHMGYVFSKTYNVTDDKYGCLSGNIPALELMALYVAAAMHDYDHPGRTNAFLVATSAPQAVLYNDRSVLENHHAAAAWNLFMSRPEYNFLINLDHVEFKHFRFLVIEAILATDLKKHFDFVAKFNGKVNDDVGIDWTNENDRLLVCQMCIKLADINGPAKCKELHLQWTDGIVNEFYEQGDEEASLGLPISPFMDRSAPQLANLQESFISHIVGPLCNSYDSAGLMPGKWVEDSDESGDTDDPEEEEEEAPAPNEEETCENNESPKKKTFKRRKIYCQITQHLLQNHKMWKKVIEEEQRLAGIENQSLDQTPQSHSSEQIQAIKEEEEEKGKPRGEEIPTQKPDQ
Muscarinic acetylcholine receptor M3, sequence (P20309 whole entry): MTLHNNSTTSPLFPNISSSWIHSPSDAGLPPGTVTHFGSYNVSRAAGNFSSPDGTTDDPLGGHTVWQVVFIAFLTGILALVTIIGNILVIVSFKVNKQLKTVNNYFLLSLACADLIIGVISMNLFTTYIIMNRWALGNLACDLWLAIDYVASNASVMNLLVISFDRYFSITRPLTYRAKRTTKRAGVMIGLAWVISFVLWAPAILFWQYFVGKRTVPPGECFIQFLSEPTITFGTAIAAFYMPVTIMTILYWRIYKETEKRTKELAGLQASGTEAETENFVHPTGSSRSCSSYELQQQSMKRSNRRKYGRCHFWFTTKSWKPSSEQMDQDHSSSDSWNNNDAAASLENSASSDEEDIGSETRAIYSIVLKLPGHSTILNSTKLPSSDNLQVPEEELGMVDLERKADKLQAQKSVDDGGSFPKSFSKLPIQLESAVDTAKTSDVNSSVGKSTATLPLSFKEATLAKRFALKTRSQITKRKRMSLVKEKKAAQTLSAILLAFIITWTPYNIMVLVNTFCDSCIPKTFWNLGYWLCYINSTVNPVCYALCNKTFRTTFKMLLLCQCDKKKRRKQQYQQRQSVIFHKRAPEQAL
High affinity 3',5'-cyclic-AMP phosphodiesterase 7A, sequence (Q13946 whole entry): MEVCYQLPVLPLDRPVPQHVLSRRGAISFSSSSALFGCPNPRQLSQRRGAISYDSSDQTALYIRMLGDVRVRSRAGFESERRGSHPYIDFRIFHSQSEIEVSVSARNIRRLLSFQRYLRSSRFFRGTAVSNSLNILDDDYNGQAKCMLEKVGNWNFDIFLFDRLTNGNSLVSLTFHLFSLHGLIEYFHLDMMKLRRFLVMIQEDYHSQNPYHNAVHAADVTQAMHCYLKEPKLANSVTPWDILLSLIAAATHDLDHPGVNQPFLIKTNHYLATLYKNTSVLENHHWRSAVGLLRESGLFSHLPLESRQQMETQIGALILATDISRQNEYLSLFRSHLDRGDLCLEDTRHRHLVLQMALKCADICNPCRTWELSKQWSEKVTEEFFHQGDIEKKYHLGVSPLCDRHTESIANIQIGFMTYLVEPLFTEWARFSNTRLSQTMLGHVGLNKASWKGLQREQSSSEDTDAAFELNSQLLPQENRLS

IC50 [1]: 1200 nM
SMILES: CC(C)Nc1nccc(-c2c(C3CC3)nn3ccccc23)n1

IC50 [2]: 150 nM
SMILES: COc1ccc([C@H]2CNC(=O)[C@H](Cc3cccc(C)c3)C2)cc1OC1CCCC1 [HT-0712]

IC50 (Phosphodiesterase 4 [3]): 0.4 nM
SMILES: COc1ccc(-c2ccc3nc(N)nc(N4CCN(C(=O)Nc5ccc(Cl)cc5)CC4)c3n2)cc1OC

IC50 [4]: 360 nM | IC50 [5]: 42 nM
SMILES: COC1=CC=C(C2=NN(CCCCCOc3ccc(C4=NNC(=O)CC4C)cc3)C(=O)CC2C)C2CC(C(F)(F)F)=NN12 (stereo not drawn)

IC50 (Phosphodiesterase 4 [6]): 2.8 nM
SMILES: CNc1nc(-c2cccc(NC(=O)c3ccc(C(=O)OC)cc3)c2)c2cc(OC)c(OC)cc2n1 [LOTAMILAST]

IC50 (Phosphodiesterase 4 [7]): 0.9 nM
SMILES: O=C(O/C(=C\c1c(Cl)cncc1Cl)c1ccc(OC(F)F)c(OCC2CC2)c1)c1ccc(OC(F)F)c(OCC2CC2)c1

IC50 [8]: 5 nM
SMILES: COc1cccc(Nc2c(C(N)=O)ccc3c(C)cc(S(=O)(=O)c4cccc(C(=O)Nc5ccc(C#CCCCNC[C@@H](O)c6ccc(O)c7[nH]c(=O)ccc67)cc5)c4)cc23)c1

IC50 [9]: 20 nM
SMILES: CC(C)CC(=O)c1ccc(OC(F)F)c(OC2CCOC2)c1 (stereo not drawn)

IC50 [10]: 3 nM | IC50 [11]: 3 nM
SMILES: CCOc1cc([C@H](CS(C)(=O)=O)N2C(=O)c3cccc(NC(=O)OCCOCCOCCOC)c3C2=O)ccc1OC

SMILES: O=C(Nc1c(Cl)cncc1Cl)C(=O)c1cn(Cc2ccc(F)cc2)c2ncccc12 [ELBIMILAST]
IC50 (Phosphodiesterase 4 [7]): 3 nM

pIC50 (Phosphodiesterase 4 [7]): 9.45
SMILES: COc1ccc(C2=NN(C3CCN(S(=O)(=O)c4ccccc4C)CC3)C(=O)C(C)(C)C2)cc1OC

IC50 [12]: 0.01 nM
SMILES: COc1ccc(-c2nc(C(=O)NCc3coc4ccccc34)c([C@@H](C)N)o2)c2ccc(C(F)(F)F)nc12

pIC50 [13]: 8.8
SMILES: CCn1ncc2c(NC3CCOCC3)c(-c3nnc(Cc4sc(C)nc4C)o3)cnc21

IC50 [14]: 5.5 nM | IC50 [15]: 440 nM
SMILES: COc1ccc(-c2nc3c(c(Nc4ccc(CC(=O)O)cc4)n2)SCCC3)cc1F

IC50 (Phosphodiesterase 4 [16]): 0.05 nM
SMILES: CCNC(=O)c1cc(C(=O)NCCCN(C)C)cc(-c2cc(NC(=O)Nc3c(Cl)cncc3Cl)c(=O)n(CC)n2)c1

IC50 (Phosphodiesterase 4 [7]): 0.2 nM
SMILES: COc1ccc(C(Cc2c(Cl)cncc2Cl)OC(=O)c2ccc(OC(F)F)c(OCC3CC3)c2)cc1OC (stereo not drawn)

IC50 [10]: 3 nM | IC50 [11]: 3 nM
SMILES: CCOc1cc([C@H](CS(C)(=O)=O)N2C(=O)c3cccc(NC(=O)OCCOCCOCCOCCOCCOCCOCCOC)c3C2=O)ccc1OC

SMILES: COc1cc2c(cc1OC)-c1c/c(=N\c3c(C)cc(C)cc3C)n(CCNC(N)=O)c(=O)n1CC2 [ENSIFENTRINE]
Activity [17]: >15%

SMILES: O=C(O[C@@H](Cc1c(Cl)c[n+]([O-])cc1Cl)c1ccc(OC(F)F)c(OCC2CC2)c1)C1CN(C(=O)c2ccc(COc3cccc(CN(C(=O)O[C@H]4CN5CCC4CC5)c4ccccc4)c3)cc2)C1
IC50 (Phosphodiesterase 4 [18]): 100 nM | IC50 [19]: 100 nM

IC50 [20]: 26 nM
SMILES: CCOc1cc(C(CS(C)(=O)=O)N2C(=O)c3csc(NC(C)=O)c3C2=O)ccc1OC (stereo not drawn)

IC50 [21]: 5 nM | IC50 [22]: 55 nM
SMILES: CCc1nc2c(cnn2CC)c(NC2CCCCC2)c1C1=NOC2(C1)CC(C1N=NN=N1)C2 (stereo not drawn)

IC50 [23]: 800 nM
SMILES: CC1CN(C(=O)CO/N=C/c2ccc(OC(F)F)c(OC3CCCC3)c2)CC(C)O1 (stereo not drawn)
